This is an account of results in US10138230B2, “Autotaxin inhibitors” (CANCER RESEARCH TECHNOLOGY LIMITED, priority 2015, dated 2018).

For this assay, the target named is human recombinant ATX (Homo sapiens (Human), UniProt Q13822). The assay is described as follows: Autotaxin (ATX) activity Quanta Red assay. In kind it is biochemical. The settings on record: 15 μM Rac-1-Palmitoyl-glycero-3-phosphocholine, 2 hours room temperature, determined in duplicate. In short, it runs like this:
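Choline released from 15 μM LPC substrate by 0.8 μg/mL recombinant human ATX (pH 8.0 Tris, CaCl2, 4% DMSO, 2 h, RT) was detected by coupled Quanta Red fluorescence.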

pIC50: −log10 of the molar value. Counter-ions that a name gives are not always drawn.

Regarding `O=C(NC1CC(=O)N(c2ccc(CN3CCCCC3)cc2)C1)c1nnc(NCc2ccc(Cl)cc2)s1` (centres unmarked) [Compound F196, 5-[(4-chlorophenyl)methyl-amino]-N-[5-oxo-1-[4-(1-piperidylmethyl)phenyl]pyrrolidin-3-yl]-1,3,4-thiadiazole-2-carboxamide], the negative-log IC50 (pIC50) was 6.99.
The figure for `O=C(Nc1nnc(CCc2ccc(Cl)cc2)s1)[C@H]1CC(=O)N(c2ccc(CN3CCOCC3)cc2)C1` [Compound F89, (3S)-N-[5-[2-(4-chlorophenyl)ethyl]-1,3,4-thiadiazol-2-yl]-1-[4-(morpholino-methyl)phenyl]-5-oxo-pyrrolidine-3-carboxamide] is 9.00; for `O=C(Nc1nnc(CCc2ccc(Cl)cc2)s1)C1CC(=O)N(c2ccc(CN3CCC(O)CC3)cc2)C1` (centres unmarked) [Compound F102, N-[5-[2-(4-chlorophenyl)ethyl]-1,3,4-thiadiazol-2-yl]-1-[4-[(4-hydroxy-1-piperidyl)methyl]phenyl]-5-oxo-pyrrolidine-3-carboxamide] it is 8.52.
The figure for `CN(Cc1ccc(N2C[C@@H](C(=O)Nc3ccc(CCc4ccc(F)cc4)nn3)CC2=O)cc1)C1CCOC1` (stereo partly drawn) [Compound F148, (3S)-N-[6-[2-(4-fluorophenyl)ethyl]pyridazin-3-yl]-1-[4-[[methyl(tetrahydrofuran-3-yl)amino]methyl]phenyl]-5-oxo-pyrrolidine-3-carboxamide] is 8.22; for `O=C(NC1CC(=O)N(c2ccc(CN3CCCCCC3)cc2)C1)c1nnc(CCc2ccc(Cl)cc2)s1` (centres unmarked) [Compound F134, N-[1-[4-(azepan-1-ylmethyl)phenyl]-5-oxo-pyrrolidin-3-yl]-5-[2-(4-chlorophenyl)ethyl]-1,3,4-thiadiazole-2-carboxamide] it is 8.52.
Consider `CC1CCN(Cc2ccc(N3CC(NC(=O)c4nnc(CCc5ccc(Cl)cc5)s4)CC3=O)cc2)CC1` (centres unmarked) [Compound F136, 5-[2-(4-chlorophenyl)ethyl]-N-[1-[4-[(4-methyl-1-piperidyl)methyl]phenyl]-5-oxo-pyrrolidin-3-yl]-1,3,4-thiadiazole-2-carboxamide], for which the pIC50 was 8.40.
With `O=C(Nc1cc(CCc2ccccc2)[nH]n1)C1CC(=O)N(c2ccc(CN3CCOCC3)cc2)C1` (centres unmarked) [Compound F179, 1-[4-(morpholinomethyl)phenyl]-5-oxo-N-[5-(2-phenylethyl)-1H-pyrazol-3-yl]pyrrolidine-3-carboxamide], the negative logarithm of the IC50 (pIC50) was 7.42.
As for `O=C(N[C@H]1CC(=O)N(c2ccc(CN3CCCCC3)cc2)C1)c1cc(CCc2ccc(F)cc2)on1` [Compound F174, 5-[2-(4-fluorophenyl)ethyl]-N-[(3S)-5-oxo-1-[4-(1-piperidylmethyl)phenyl]pyrrolidin-3-yl]isoxazole-3-carboxamide], the negative logarithm of the IC50 (pIC50) is 7.48.
Then `CN(Cc1ccc(N2C[C@@H](C(=O)Nc3ccc(CCc4ccc(F)cc4)nn3)CC2=O)cc1)C1COC1` [Compound F155, (3S)-N-[6-[2-(4-fluorophenyl)ethyl]pyridazin-3-yl]-1-[4-[[methyl(oxetan-3-yl)amino]methyl]phenyl]-5-oxo-pyrrolidine-3-carboxamide], with 7.96; and `C[C@@H]1CN(Cc2ccc(N3CC(C(=O)Nc4nnc(CCc5ccc(Cl)cc5)s4)CC3=O)cc2)C[C@H](C)O1` (stereo partly drawn) [Compound F119, N-[5-[2-(4-chlorophenyl)ethyl]-1,3,4-thiadiazol-2-yl]-1-[4-[[(2S,6R)-2,6-dimethylmorpholin-4-yl]methyl]phenyl]-5-oxo-pyrrolidine-3-carboxamide], with 8.40.
The figure for `O=C(Nc1nnc(CCC2CCCO2)s1)[C@H]1CC(=O)N(c2ccc(CN3CCCCC3)cc2)C1` (stereo partly drawn) [Compound F191, (3S)-5-oxo-1-[4-(1-piperidylmethyl)phenyl]-N-[5-(2-tetrahydrofuran-2-ylethyl)-1,3,4-thiadiazol-2-yl]pyrrolidine-3-carboxamide] is 6.21.
Then `CN(CCC(C)(C)O)Cc1ccc(N2C[C@H](NC(=O)c3nnc(CCc4ccc(Cl)cc4)s3)CC2=O)cc1` [Compound F171, 5-[2-(4-chlorophenyl)ethyl]-N-[(3R)-1-[4-[[(3-hydroxy-3-methyl-butyl)-methyl-amino]methyl]phenyl]-5-oxo-pyrrolidin-3-yl]-1,3,4-thiadiazole-2-carboxamide], with 7.24.
As for `CN1CCN(Cc2ccc(N3CC(C(=O)Nc4nnc(CCc5ccc(Cl)cc5)s4)CC3=O)cc2)CC1` (centres unmarked) [Compound F117, N-[5-[2-(4-chlorophenyl)ethyl]-1,3,4-thiadiazol-2-yl]-1-[4-[(4-methylpiperazin-1-yl)methyl]phenyl]-5-oxo-pyrrolidine-3-carboxamide], the negative logarithm of the IC50 (pIC50) is 8.40.
Then `O=C(Nc1nnc(CCc2ccc(Cl)cc2)s1)C1CC(=O)N(c2ccc(CN3CCOCC3)cc2)C1` (centres unmarked) [Compound F121, N-[5-[2-(4-chlorophenyl)ethyl]-1,3,4-thiadiazol-2-yl]-1-[4-(morpholinomethyl)phenyl]-5-oxo-pyrrolidine-3-carboxamide], with 8.40.
The figure for `O=C(NC1CC(=O)N(c2ccc(CN3CCCCC3)cc2)C1)c1cnc(CCc2ccccc2)s1` (centres unmarked) [Compound F206, N-[5-oxo-1-[4-(1-piperidylmethyl)phenyl]pyrrolidin-3-yl]-2-(2-phenylethyl)thiazole-5-carboxamide] is 5.03; for `O=C(N[C@H]1CC(=O)N(c2ccc(CN3CCOCC3)cc2)C1)c1nnc(CCc2ccc(Cl)cc2)s1` [Compound F135, 5-[2-(4-chlorophenyl)ethyl]-N-[(3S)-1-[4-(morpholinomethyl)phenyl]-5-oxo-pyrrolidin-3-yl]-1,3,4-thiadiazole-2-carboxamide] it is 8.52.
Then `O=C(NC1CC(=O)N(c2ccc(CN3CCCCC3)cc2)C1)c1ccc(CCc2ccccc2)nn1` (centres unmarked) [Compound F205, N-[5-oxo-1-[4-(1-piperidylmethyl)phenyl]pyrrolidin-3-yl]-6-(2-phenylethyl)pyridazine-3-carboxamide], with 5.15; and `CN(Cc1ccc(N2C[C@@H](C(=O)Nc3cc(CCc4ccc(Cl)cc4)on3)CC2=O)cc1)C1CCOC1` (stereo partly drawn) [Compound F152, (3S)-N-[5-[2-(4-chlorophenyl)ethyl]isoxazol-3-yl]-1-[4-[[methyl(tetrahydrofuran-3-yl)amino]methyl]phenyl]-5-oxo-pyrrolidine-3-carboxamide], with 8.70; and `O=C(Nc1ccc(CCc2ccccc2)nn1)C1CC(=O)N(c2ccc(CN3CCOCC3)cc2)C1` (centres unmarked) [Compound F162, 1-[4-(morpholinomethyl)phenyl]-5-oxo-N-[6-(2-phenylethyl)pyridazin-3-yl]pyrrolidine-3-carboxamide], with 7.43.
As to `NCc1ccc(N2CC(C(=O)Nc3nnc(CCc4ccc(Cl)cc4)s3)CC2=O)cc1` (centres unmarked) [Compound F203, 1-(4-aminomethyl-phenyl)-5-oxo-pyrrolidine-3-carboxylic acid {5-[2-(4-chloro-phenyl)-ethyl]-[1,3,4]thiadiazol-2-yl}-amide], the negative-log IC50 (pIC50) was 6.41.
Take `CN(C)Cc1ccc(N2CC(C(=O)Nc3nnc(CCc4ccc(Cl)cc4)s3)CC2=O)cc1` (centres unmarked) [Compound F177, N-[5-[2-(4-chlorophenyl)ethyl]-1,3,4-thiadiazol-2-yl]-1-[4-[(dimethylamino)methyl]phenyl]-5-oxo-pyrrolidine-3-carboxamide]: the pIC50 is 7.54.
As to `O=C(NC1CC(=O)N(c2ccc(CN3CCCCC3)cc2)C1)c1nnc(CCc2ccco2)s1` (centres unmarked) [Compound F195, 5-[2-(2-furyl)ethyl]-N-[5-oxo-1-[4-(1-piperidylmethyl)phenyl]pyrrolidin-3-yl]-1,3,4-thiadiazole-2-carboxamide], the pIC50 is 6.12.
The figure for `O=C(NC1CC(=O)N(c2ccc(CN3CC4CC4C3)cc2)C1)c1nnc(CCc2ccc(Cl)cc2)s1` (centres unmarked) [Compound F140, N-[1-[4-(3-azabicyclo[3.1.0]hexan-3-ylmethyl)phenyl]-5-oxo-pyrrolidin-3-yl]-5-[2-(4-chlorophenyl)ethyl]-1,3,4-thiadiazole-2-carboxamide] is 8.30; for `O=C(NC1CC(=O)N(c2ccc(CN3CCCCC3)cc2)C1)c1nnc(CCc2ccccc2)s1` (centres unmarked) [Compound F172, N-[5-oxo-1-[4-(1-piperidylmethyl)phenyl]pyrrolidin-3-yl]-5-(2-phenylethyl)-1,3,4-thiadiazole-2-carboxamide] it is 7.12.
The figure for `O=C1CC(CNc2nnc(CCc3ccc(Cl)cc3)s2)CN1c1ccc(CN2CCOCC2)cc1` (centres unmarked) [Compound F153, 4-({5-[2-(4-Chloro-phenyl)-ethyl]-[1,3,4]thiadiazol-2-ylamino}-methyl)-1-(4-morpholin-4-ylmethyl-phenyl)-pyrrolidin-2-one] is 8.70; for `O=C(Nc1nnc(CCc2ccc(Cl)cc2)s1)C1CC(=O)N(c2ccc(CN3CCCNCC3)cc2)C1` (centres unmarked) [Compound F156, 1-(4-[1,4]Diazepan-1-ylmethyl-phenyl)-5-oxo-pyrrolidine-3-carboxylic acid {5-[2-(4-chloro-phenyl)-ethyl]-[1,3,4]thiadiazol-2-yl}-amide; dihydrochloride] it is 7.85; for `O=C(N[C@@H]1CC(=O)N(c2ccc(CN3CCCCC3)cc2)C1)c1cc(CCc2ccc(F)cc2)on1` [Compound F173, 5-[2-(4-fluorophenyl)ethyl]-N-[(3R)-5-oxo-1-[4-(1-piperidylmethyl)phenyl]pyrrolidin-3-yl]isoxazole-3-carboxamide] it is 7.62.
The figure for `O=C(Nc1nnc(CCc2ccc(Cl)cc2)s1)[C@@H]1CC(=O)N(c2ccc(CN3CCCCC3)cc2)C1` [Compound F163, (3R)-N-[5-[2-(4-chlorophenyl)ethyl]-1,3,4-thiadiazol-2-yl]-5-oxo-1-[4-(1-piperidylmethyl)phenyl] pyrrolidine-3-carboxamide] is 7.31; for `O=C(Nc1ccc(CCc2ccc(F)cc2)nn1)[C@H]1CC(=O)N(c2ccc(CN3CCOCC3)cc2)C1` [Compound F180, (3S)—N-[6-[2-(4-fluorophenyl)ethyl]pyridazin-3-yl]-1-[4-(morpholinomethyl)phenyl]-5-oxo-pyrrolidine-3-carboxamide hydrochloride] it is 7.96.
